Results on 8 molecules are retold here after ChEMBL document CHEMBL3822442, “Synthesis and Pharmacological Characterization of Novel Glucagon-like Peptide-2 (GLP-2) Analogues with Low Systemic Clearance” (J Med Chem, 2016).

Calls of active or inactive are those of the source. The rule behind the calls is not given here. Non-standard residues stand in square brackets, D forms with d. Residues, ends and D or L forms follow the SMILES beside them. ξ: configuration not given here. ξhPhe = NC(CCc1ccccc1)C(=O)O; ξNle = CCCCC(N)C(=O)O

The target of data set [1] is T1, Glucagon-like peptide 2 receptor (Homo sapiens, UniProt O95838).
T1 sequence (O95838 whole entry): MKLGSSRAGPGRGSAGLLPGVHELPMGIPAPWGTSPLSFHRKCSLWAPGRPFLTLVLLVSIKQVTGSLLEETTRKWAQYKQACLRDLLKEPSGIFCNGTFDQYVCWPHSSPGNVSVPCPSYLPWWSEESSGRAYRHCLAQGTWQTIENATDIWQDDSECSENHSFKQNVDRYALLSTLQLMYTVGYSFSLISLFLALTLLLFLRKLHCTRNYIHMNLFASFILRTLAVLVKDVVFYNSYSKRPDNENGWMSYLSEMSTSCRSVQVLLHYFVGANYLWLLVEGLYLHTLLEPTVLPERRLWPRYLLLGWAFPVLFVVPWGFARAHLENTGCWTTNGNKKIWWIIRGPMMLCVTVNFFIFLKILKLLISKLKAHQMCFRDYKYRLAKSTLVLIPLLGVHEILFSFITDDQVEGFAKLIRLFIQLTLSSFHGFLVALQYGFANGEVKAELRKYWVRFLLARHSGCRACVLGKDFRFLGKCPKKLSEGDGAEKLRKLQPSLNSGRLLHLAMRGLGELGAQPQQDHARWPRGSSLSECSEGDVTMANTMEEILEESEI
The experiment in a line: Agonist activity at human GLP2R expressed in HEK293 cells after 5 hrs by luciferase reporter gene assay. The class given is cell-based. (Reporter assays use an easily measured gene product as a stand-in for the process of interest.)

Data set [2] has as its target Glucagon-like peptide 1 receptor (Homo sapiens, UniProt P43220). Description: Agonist activity at human GLP1R expressed in HEK293 cells after 5 hrs by luciferase reporter gene assay. It counts as cell-based.
For another data set, the system named is HEK293. The experiment in a line: Selectivity ratio of EC50 for human GLP1R expressed in HEK293 cells to EC50 for human GLP2R expressed in HEK293. The class given is cell-based.
The nature of data set [3]: Systemic clearance in Sprague-Dawley rat at 0.2 mg/kg, iv through cassette dosing measured up to 300 mins by LC/MS/MS analysis. It counts as ADME, organism-based. The note with it: in vivo.
The target of data set [4] is Glucagon receptor (Homo sapiens) (UniProt P47871). The experiment in a line: Agonist activity at human GCGR expressed in HEK293 cells up to 1000 nM after 5 hrs by luciferase reporter gene assay. It counts as cell-based.
Chain of Glucagon receptor (Homo sapiens) (P47871 whole entry): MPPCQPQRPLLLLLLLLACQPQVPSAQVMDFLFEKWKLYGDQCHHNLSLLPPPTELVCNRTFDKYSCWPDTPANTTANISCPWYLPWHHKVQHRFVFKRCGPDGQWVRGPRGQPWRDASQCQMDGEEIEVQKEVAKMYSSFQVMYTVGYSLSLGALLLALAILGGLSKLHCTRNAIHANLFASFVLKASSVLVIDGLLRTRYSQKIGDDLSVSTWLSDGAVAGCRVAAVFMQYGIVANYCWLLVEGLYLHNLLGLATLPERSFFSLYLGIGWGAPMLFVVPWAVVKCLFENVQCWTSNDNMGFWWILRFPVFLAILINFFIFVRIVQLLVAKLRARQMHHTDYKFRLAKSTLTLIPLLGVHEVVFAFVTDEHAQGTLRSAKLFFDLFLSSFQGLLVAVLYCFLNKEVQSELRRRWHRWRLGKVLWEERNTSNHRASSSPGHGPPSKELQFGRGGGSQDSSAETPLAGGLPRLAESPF

Chain of Glucagon-like peptide 1 receptor (P43220 whole entry): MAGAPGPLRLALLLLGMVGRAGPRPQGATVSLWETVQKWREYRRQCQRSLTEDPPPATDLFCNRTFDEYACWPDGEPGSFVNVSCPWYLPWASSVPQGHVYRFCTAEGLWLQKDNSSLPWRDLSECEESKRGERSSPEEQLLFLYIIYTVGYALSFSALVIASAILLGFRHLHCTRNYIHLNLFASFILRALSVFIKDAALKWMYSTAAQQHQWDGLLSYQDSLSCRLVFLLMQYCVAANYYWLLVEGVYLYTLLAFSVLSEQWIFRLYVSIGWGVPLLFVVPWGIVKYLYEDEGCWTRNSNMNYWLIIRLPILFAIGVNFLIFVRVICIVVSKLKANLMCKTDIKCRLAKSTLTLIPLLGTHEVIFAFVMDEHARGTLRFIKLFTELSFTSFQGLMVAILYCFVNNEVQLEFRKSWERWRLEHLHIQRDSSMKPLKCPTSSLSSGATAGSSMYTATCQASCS

In the case of `CCCCC(NC(=O)[C@H](CCC(=O)O)NC(=O)[C@H](CC(=O)O)NC(=O)[C@H](CO)NC(=O)[C@H](Cc1ccccc1)NC(=O)[C@H](CO)NC(=O)CNC(=O)[C@H](CC(=O)O)NC(=O)CNC(=O)[C@@H](N)Cc1cnc[nH]1)C(=O)N[C@@H](CC(N)=O)C(=O)N[C@H](C(=O)N[C@H](C(=O)N[C@@H](CC(C)C)C(=O)N[C@@H](CC(=O)O)C(=O)N[C@@H](Cc1cnc[nH]1)C(=O)N[C@@H](CC(C)C)C(=O)N[C@@H](C)C(=O)N[C@@H](C)C(=O)N[C@@H](CCCNC(=N)N)C(=O)N[C@@H](CC(=O)O)C(=O)N[C@@H](Cc1ccccc1)C(=O)N[C@H](C(=O)N[C@@H](CC(N)=O)C(=O)N[C@@H](Cc1c[nH]c2ccccc12)C(=O)N[C@@H](CC(C)C)C(=O)N[C@H](C(=O)N[C@@H](CCC(N)=O)C(=O)N[C@H](C(=O)N[C@@H](CCCCN)C(N)=O)[C@@H](C)O)[C@@H](C)CC)[C@@H](C)CC)[C@@H](C)CC)[C@@H](C)O` (stereo not given in full) (H-HGDGSFSDE[ξNle]NTILDHLAARDFINWLIQTK-NH2), the results for the EC50 in data set [1] and in data set [2] were 0.42 nM and more than 1000 nM, respectively. Also, in the data set on HEK293, the Ratio EC50 is more than 2300. Also, the clearance (usually the volume of plasma or blood freed of the substance per unit of time) in data set [3] is 0.13 mL/min/kg. The outcome in data set [4] was inactive.
For the molecule `CCCCC(NC(=O)[C@H](CCC(=O)O)NC(=O)[C@H](CC(=O)O)NC(=O)[C@H](CO)NC(=O)[C@H](Cc1ccccc1)NC(=O)[C@H](CO)NC(=O)CNC(=O)[C@H](CC(=O)O)NC(=O)CNC(=O)[C@@H](N)Cc1cnc[nH]1)C(=O)N[C@@H](CC(N)=O)C(=O)N[C@H](C(=O)N[C@H](C(=O)N[C@@H](CC(C)C)C(=O)N[C@@H](CC(=O)O)C(=O)NC(CCc1ccccc1)C(=O)N[C@@H](CC(C)C)C(=O)N[C@@H](C)C(=O)N[C@@H](C)C(=O)N[C@@H](CCCNC(=N)N)C(=O)N[C@@H](CC(=O)O)C(=O)N[C@@H](Cc1ccccc1)C(=O)N[C@H](C(=O)N[C@@H](CC(N)=O)C(=O)N[C@@H](Cc1c[nH]c2ccccc12)C(=O)N[C@@H](CC(C)C)C(=O)N[C@H](C(=O)N[C@@H](CCC(N)=O)C(=O)N[C@H](C(=O)N[C@@H](CCCCN)C(N)=O)[C@@H](C)O)[C@@H](C)CC)[C@@H](C)CC)[C@@H](C)CC)[C@@H](C)O` (stereo not given in full) (H-HGDGSFSDE[ξNle]NTILD[ξhPhe]LAARDFINWLIQTK-NH2), the values for the EC50 in data set [1] and in data set [2] were 0.11 nM and more than 1000 nM, respectively. The Ratio EC50 in the data set on HEK293 was more than 9000. Further, in data set [3], the clearance turned out to be 0.44 mL/min/kg. Further, in data set [4], the result was inactive.
On the same counts, the results for `CCCCC(NC(=O)[C@H](CCC(=O)O)NC(=O)[C@H](CC(=O)O)NC(=O)[C@H](CO)NC(=O)[C@H](Cc1ccccc1)NC(=O)[C@H](CO)NC(=O)CNC(=O)[C@H](CC(=O)O)NC(=O)CNC(=O)[C@@H](N)Cc1cnc[nH]1)C(=O)N[C@@H](CC(N)=O)C(=O)N[C@H](C(=O)N[C@H](C(=O)N[C@@H](CC(C)C)C(=O)N[C@@H](CC(=O)O)C(=O)N[C@@H](Cc1c[nH]c2ccccc12)C(=O)N[C@@H](CC(C)C)C(=O)N[C@@H](C)C(=O)N[C@@H](C)C(=O)N[C@@H](CCCNC(=N)N)C(=O)N[C@@H](CC(=O)O)C(=O)N[C@@H](Cc1ccccc1)C(=O)N[C@H](C(=O)N[C@@H](CC(N)=O)C(=O)N[C@@H](Cc1c[nH]c2ccccc12)C(=O)N[C@@H](CC(C)C)C(=O)N[C@H](C(=O)N[C@@H](CCC(N)=O)C(=O)N[C@H](C(=O)N[C@@H](CCCCN)C(N)=O)[C@@H](C)O)[C@@H](C)CC)[C@@H](C)CC)[C@@H](C)CC)[C@@H](C)O` (stereo not given in full) (H-HGDGSFSDE[ξNle]NTILDWLAARDFINWLIQTK-NH2) are 0.15 nM, more than 1000 nM, more than 6600, 0.5 mL/min/kg and “inactive”.
On to `CCCCC(NC(=O)[C@@H](CCC(=O)O)NC(=O)[C@@H](CC(=O)O)NC(=O)[C@@H](CO)NC(=O)[C@@H](Cc1ccccc1)NC(=O)[C@@H](CO)NC(=O)CNC(=O)[C@@H](CC(=O)O)NC(=O)CNC(=O)[C@@H](N)Cc1cnc[nH]1)C(=O)N[C@H](CC(N)=O)C(=O)N[C@@H](C(=O)N[C@@H](C(=O)N[C@H](CC(C)C)C(=O)N[C@H](CC(=O)O)C(=O)NC(Cc1ccc2ccccc2c1)C(=O)N[C@@H](CC(C)C)C(=O)N[C@@H](C)C(=O)N[C@@H](C)C(=O)N[C@@H](CCCNC(=N)N)C(=O)N[C@@H](CC(=O)O)C(=O)N[C@@H](Cc1ccccc1)C(=O)N[C@H](C(=O)N[C@@H](CC(N)=O)C(=O)N[C@H](Cc1c[nH]c2ccccc12)C(=O)N[C@H](CC(C)C)C(=O)N[C@@H](C(=O)N[C@H](CCC(N)=O)C(=O)N[C@@H](C(=O)N[C@@H](CCCCN)C(N)=O)[C@H](C)O)[C@@H](C)CC)[C@H](C)CC)[C@@H](C)CC)[C@H](C)O` (stereo not given in full), for which the Ratio EC50 in the data set with HEK293 was more than 7600. Further, in data set [4], the result was inactive.
With `CCCCC(NC(=O)[C@H](CCC(=O)O)NC(=O)[C@H](CC(=O)O)NC(=O)[C@H](CO)NC(=O)[C@H](Cc1ccccc1)NC(=O)[C@H](CO)NC(=O)CNC(=O)[C@H](CC(=O)O)NC(=O)CNC(=O)[C@H](N)Cc1cnc[nH]1)C(=O)N[C@@H](CC(N)=O)C(=O)N[C@H](C(=O)N[C@H](C(=O)N[C@@H](CC(C)C)C(=O)N[C@@H](CC(=O)O)C(=O)NC(Cc1ccc(-c2ccccc2)cc1)C(=O)N[C@H](CC(C)C)C(=O)N[C@H](C)C(=O)N[C@H](C)C(=O)N[C@H](CCCNC(=N)N)C(=O)N[C@H](CC(=O)O)C(=O)N[C@H](Cc1ccccc1)C(=O)N[C@@H](C(=O)N[C@H](CC(N)=O)C(=O)N[C@@H](Cc1c[nH]c2ccccc12)C(=O)N[C@@H](CC(C)C)C(=O)N[C@H](C(=O)N[C@@H](CCC(N)=O)C(=O)N[C@H](C(=O)N[C@H](CCCCN)C(N)=O)[C@@H](C)O)[C@H](C)CC)[C@@H](C)CC)[C@H](C)CC)[C@@H](C)O` (stereo not given in full), the Ratio EC50 with HEK293 is more than 2800. Further, the result in data set [4] was inactive.
Take `CCCCC(NC(=O)[C@H](CCC(=O)O)NC(=O)[C@H](CC(=O)O)NC(=O)[C@H](CO)NC(=O)[C@H](Cc1ccccc1)NC(=O)[C@H](CO)NC(=O)CNC(=O)[C@H](CC(=O)O)NC(=O)CNC(=O)[C@H](N)Cc1cnc[nH]1)C(=O)N[C@@H](CC(N)=O)C(=O)N[C@H](C(=O)N[C@H](C(=O)N[C@@H](CC(C)C)C(=O)N[C@@H](CC(=O)O)C(=O)NC(Cc1ccc(Cl)cc1)C(=O)N[C@H](CC(C)C)C(=O)N[C@H](C)C(=O)N[C@H](C)C(=O)N[C@H](CCCNC(=N)N)C(=O)N[C@H](CC(=O)O)C(=O)N[C@H](Cc1ccccc1)C(=O)N[C@@H](C(=O)N[C@H](CC(N)=O)C(=O)N[C@@H](Cc1c[nH]c2ccccc12)C(=O)N[C@@H](CC(C)C)C(=O)N[C@H](C(=O)N[C@@H](CCC(N)=O)C(=O)N[C@H](C(=O)N[C@H](CCCCN)C(N)=O)[C@@H](C)O)[C@H](C)CC)[C@@H](C)CC)[C@H](C)CC)[C@@H](C)O` (stereo not given in full): the Ratio EC50 in the data set on HEK293 is more than 4500. Besides, the result in data set [4] was inactive.
On the same counts, the results for `CCCCC(NC(=O)[C@@H](CCC(=O)O)NC(=O)[C@@H](CC(=O)O)NC(=O)[C@@H](CO)NC(=O)[C@@H](Cc1ccccc1)NC(=O)[C@@H](CO)NC(=O)CNC(=O)[C@@H](CC(=O)O)NC(=O)CNC(=O)[C@@H](N)Cc1cnc[nH]1)C(=O)N[C@H](CC(N)=O)C(=O)N[C@@H](C(=O)N[C@@H](C(=O)N[C@H](CC(C)C)C(=O)N[C@H](CC(=O)O)C(=O)NC(Cc1cccc2ccccc12)C(=O)N[C@@H](CC(C)C)C(=O)N[C@@H](C)C(=O)N[C@@H](C)C(=O)N[C@@H](CCCNC(=N)N)C(=O)N[C@@H](CC(=O)O)C(=O)N[C@@H](Cc1ccccc1)C(=O)N[C@H](C(=O)N[C@@H](CC(N)=O)C(=O)N[C@H](Cc1c[nH]c2ccccc12)C(=O)N[C@H](CC(C)C)C(=O)N[C@@H](C(=O)N[C@H](CCC(N)=O)C(=O)N[C@@H](C(=O)N[C@@H](CCCCN)C(N)=O)[C@H](C)O)[C@@H](C)CC)[C@H](C)CC)[C@@H](C)CC)[C@H](C)O` (stereo not given in full) are more than 5200 and “inactive”.
The corresponding values for `CCCCC(NC(=O)[C@H](CCC(=O)O)NC(=O)[C@H](CC(=O)O)NC(=O)[C@H](CO)NC(=O)[C@H](Cc1ccccc1)NC(=O)[C@H](CO)NC(=O)CNC(=O)[C@H](CC(=O)O)NC(=O)CNC(=O)[C@H](N)Cc1cnc[nH]1)C(=O)N[C@@H](CC(N)=O)C(=O)N[C@H](C(=O)N[C@H](C(=O)N[C@@H](CC(C)C)C(=O)N[C@@H](CC(=O)O)C(=O)NC(CC1CCCCC1)C(=O)N[C@H](CC(C)C)C(=O)N[C@H](C)C(=O)N[C@H](C)C(=O)N[C@H](CCCNC(=N)N)C(=O)N[C@H](CC(=O)O)C(=O)N[C@H](Cc1ccccc1)C(=O)N[C@@H](C(=O)N[C@H](CC(N)=O)C(=O)N[C@@H](Cc1c[nH]c2ccccc12)C(=O)N[C@@H](CC(C)C)C(=O)N[C@H](C(=O)N[C@@H](CCC(N)=O)C(=O)N[C@H](C(=O)N[C@H](CCCCN)C(N)=O)[C@@H](C)O)[C@H](C)CC)[C@@H](C)CC)[C@H](C)CC)[C@@H](C)O` (stereo not given in full) are more than 10000 and “inactive”.
